Results from patent publication US9187490B2, “Dimeric IAP inhibitors” (TetraLogic Pharmaceuticals Corporation, priority 2005, dated 2015).

Molecular target: T1, XIAP-BIR3 (Homo sapiens, UniProt P98170)
T1 construct: 40 nM of XIAP-BIR3 for 15 min at RT
Experiment: XIAP BIR-3 fluorescence polarization binding assay
Details: for Kd: 5 nM AbuRPF-K(5-Fam)-NH2, 40 nM XIAP-BIR3, 15 min RT, pH 7.5, read-out: KD Range
Method: Following incubation, the polarization values (mP) were measured on a Victor^2V using a 485 nm excitation filter and a 520 nm emission filter. IC50 values were determined from the plot using nonlinear least-squares analysis using GraphPad Prism.

T1 sequence (P98170 241-356 limits assumed): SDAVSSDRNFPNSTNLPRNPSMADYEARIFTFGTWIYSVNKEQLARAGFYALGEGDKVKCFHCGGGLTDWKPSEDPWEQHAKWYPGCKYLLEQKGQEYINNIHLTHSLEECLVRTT

| Kd [nM] | increase in binding affinity relative to the Smac tetrapeptide (AVPI) (XIAP BIR-3, FIG. 1) | Structure (SMILES) |
| --- | --- | --- |
| 1000 to 10000 |  | CNC(C)C(=O)NC(C(=O)N1CCCC1Cc1c(-c2ccc(-c3c(CC4CCCN4C(=O)C(NC(=O)C(C)NC)C(C)(C)C)c4ccc(F)cc4n3CCO)cc2)n(CCO)c2cc(F)ccc12)C(C)(C)C (single isomer, unassigned) [Entry 60] |
| < 100 |  | CNC(C)C(=O)NC(C(=O)N1CCCC1Cc1c(-c2ccc(-c3c(CC4CCCN4C(=O)C(NC(=O)C(C)NC)C(C)(C)C)c4ccc(F)cc4n3CCO)cc2)n(CCO)c2cc(F)ccc12)C(C)(C)C (single isomer, unassigned) [Entry 487] |
| < 100 |  | CC(C)[C@H](NC(=O)[C@H](C)N)C(=O)N1CCC[C@H]1Cc1c(/C=C/c2oc3ccccc3c2C[C@@H]2CCCN2C(=O)[C@@H](NC(=O)[C@H](C)N)C(C)C)oc2ccccc12 [Entry 2] |
| < 100 |  | CC(C)[C@H](NC(=O)[C@H](C)N)C(=O)N1CCC[C@H]1Cc1c(CCc2oc3ccccc3c2C[C@@H]2CCCN2C(=O)[C@@H](NC(=O)[C@H](C)N)C(C)C)oc2ccccc12 [Entry 3] |
| < 100 |  | CC(C)[C@H](NC(=O)CN)C(=O)N1CCC[C@H]1Cc1c(-c2ccc(-c3oc4ccccc4c3C[C@@H]3CCCN3C(=O)[C@@H](NC(=O)[C@H](C)N)C(C)C)cc2)oc2ccccc12 [Entry 4] |
| < 100 |  | C[C@H](N)C(=O)N[C@H](C(=O)N1CCC[C@H]1Cc1c(-c2ccc(-c3oc4ccccc4c3C[C@@H]3CCCN3C(=O)[C@@H](NC(=O)[C@H](C)N)C(C)(C)C)cc2)oc2ccccc12)C(C)(C)C [Entry 7] |
| < 100 |  | CN[C@@H](C)C(=O)N[C@H](C(=O)N1CCC[C@H]1Cc1c(-c2ccc(-c3oc4ccccc4c3C[C@@H]3CCCN3C(=O)[C@@H](NC(=O)[C@H](C)NC)C(C)(C)C)cc2)oc2ccccc12)C(C)(C)C [Entry 8] |
| 100 to 1000 |  | CC[C@H](N)C(=O)N[C@H](C(=O)N1CCC[C@H]1Cc1c(-c2ccc(-c3oc4ccccc4c3C[C@@H]3CCCN3C(=O)[C@@H](NC(=O)[C@@H](N)CC)C(C)(C)C)cc2)oc2ccccc12)C(C)(C)C [Entry 9] |
| < 100 |  | CN[C@@H](C)C(=O)N[C@H](C(=O)N1CCC[C@H]1Cc1c(-c2ccc(-c3oc4ccccc4c3C[C@@H]3CCCN3C(=O)[C@@H](NC(=O)[C@H](C)NC)C(C)C)cc2)oc2ccccc12)C(C)C [Entry 10] |
| < 100 |  | CC[C@H](N)C(=O)N[C@H](C(=O)N1CCC[C@H]1Cc1c(-c2ccc(-c3oc4ccccc4c3C[C@@H]3CCCN3C(=O)[C@@H](NC(=O)[C@@H](N)CC)C(C)C)cc2)oc2ccccc12)C(C)C [Entry 11] |
| < 100 |  | C[C@H](N)C(=O)N[C@H](C(=O)N1CCC[C@H]1Cc1c(-c2ccc(-c3oc4ccccc4c3C[C@@H]3CCCN3C(=O)[C@@H](NC(=O)[C@H](C)N)C3CCCCC3)cc2)oc2ccccc12)C1CCCCC1 [Entry 12] |
| < 100 |  | CN[C@@H](C)C(=O)N[C@H](C(=O)N1CCC[C@H]1Cc1c(-c2ccc(-c3oc4ccccc4c3C[C@@H]3CCCN3C(=O)[C@@H](NC(=O)[C@H](C)NC)C3CCCCC3)cc2)oc2ccccc12)C1CCCCC1 [Entry 13] |
| 100 to 1000 |  | CC[C@H](N)C(=O)N[C@H](C(=O)N1CCC[C@H]1Cc1c(-c2ccc(-c3oc4ccccc4c3C[C@@H]3CCCN3C(=O)[C@@H](NC(=O)[C@@H](N)CC)C3CCCCC3)cc2)oc2ccccc12)C1CCCCC1 [Entry 14] |
| < 100 |  | CN[C@@H](C)C(=O)N[C@H](C(=O)N1CCC[C@H]1Cc1c(-c2ccc(-c3oc4ccccc4c3C[C@@H]3CCCN3C(=O)[C@@H](NC(=O)[C@H](C)NC)[C@@H](C)O)cc2)oc2ccccc12)[C@@H](C)O [Entry 15] |
| < 100 |  | CN[C@@H](C)C(=O)N[C@H](C(=O)N1CCC[C@H]1Cc1c(-c2ccc(-c3[nH]c4cc(F)ccc4c3C[C@@H]3CCCN3C(=O)[C@@H](NC(=O)[C@H](C)NC)C(C)C)cc2)[nH]c2cc(F)ccc12)C(C)C [Entry 16] |
| < 100 | 30,000 fold | CC(C)[C@H](NC(=O)[C@H](C)N)C(=O)N1CCC[C@H]1Cc1c(-c2ccc(-c3[nH]c4cc(F)ccc4c3C[C@@H]3CCCN3C(=O)[C@@H](NC(=O)[C@H](C)N)C(C)C)s2)[nH]c2cc(F)ccc12 [Entry 17] |
| < 100 |  | CN[C@@H](C)C(=O)N[C@H](C(=O)N1CCC[C@H]1Cc1c(-c2ccc(-c3[nH]c4cc(F)ccc4c3C[C@@H]3CCCN3C(=O)[C@@H](NC(=O)[C@H](C)NC)C3CCCCC3)s2)[nH]c2cc(F)ccc12)C1CCCCC1 [Entry 18] |
| < 100 |  | C[C@H](N)C(=O)N[C@H](C(=O)N1CCC[C@H]1Cc1c(-c2ccc(-c3[nH]c4cc(F)ccc4c3C[C@@H]3CCCN3C(=O)[C@@H](NC(=O)[C@H](C)N)C3CCCCC3)cc2)[nH]c2cc(F)ccc12)C1CCCCC1 [Entry 19] |
| < 100 |  | CN[C@@H](C)C(=O)N[C@H](C(=O)N1CCC[C@H]1Cc1c(-c2ccc(-c3[nH]c4cc(F)ccc4c3C[C@@H]3CCCN3C(=O)[C@@H](NC(=O)[C@H](C)NC)C3CCCCC3)cc2)[nH]c2cc(F)ccc12)C1CCCCC1 [Entry 20] |
| 100 to 1000 |  | CN[C@@H](C)C(=O)N[C@H](C(=O)N1C[C@H](O)C[C@H]1Cc1c(-c2ccc(-c3[nH]c4ccccc4c3C[C@@H]3C[C@@H](O)CN3C(=O)[C@@H](NC(=O)[C@H](C)NC)C(C)C)cc2)[nH]c2ccccc12)C(C)C [Entry 21] |
| 100 to 1000 |  | CN[C@@H](C)C(=O)N[C@H](C(=O)N1C[C@H](O)C[C@H]1Cc1c(-c2ccc(-c3[nH]c4ccccc4c3C[C@@H]3C[C@@H](O)CN3C(=O)[C@@H](NC(=O)[C@H](C)NC)C(C)(C)C)cc2)[nH]c2ccccc12)C(C)(C)C [Entry 22] |
| < 100 |  | CN[C@@H](C)C(=O)N[C@H](C(=O)N1CCC[C@H]1Cc1c(-c2ccc(-c3[nH]c4ccc(F)cc4c3C[C@@H]3CCCN3C(=O)[C@@H](NC(=O)[C@H](C)NC)C(C)C)cc2)[nH]c2ccc(F)cc12)C(C)C [Entry 23] |
| < 100 |  | CN[C@@H](C)C(=O)N[C@H](C(=O)N1C[C@@H](O)C[C@H]1Cc1c(-c2ccc(-c3[nH]c4ccccc4c3C[C@@H]3C[C@H](O)CN3C(=O)[C@@H](NC(=O)[C@H](C)NC)C(C)(C)C)cc2)[nH]c2ccccc12)C(C)(C)C [Entry 24] |
| < 100 |  | CN[C@@H](C)C(=O)N[C@H](C(=O)N1CCC[C@H]1Cc1c(-c2ccc(-c3[nH]c4cc(F)ccc4c3C[C@@H]3CCCN3C(=O)[C@@H](NC(=O)[C@H](C)NC)[C@@H](C)OCc3ccccc3)cc2)[nH]c2cc(F)ccc12)[C@@H](C)OCc1ccccc1 [Entry 25] |
| < 100 |  | CN[C@@H](C)C(=O)N[C@H](C(=O)N1CCC[C@H]1Cc1c(-c2ccc(-c3[nH]c4cc(F)ccc4c3C[C@@H]3CCCN3C(=O)[C@@H](NC(=O)[C@H](C)NC)[C@@H](C)OCc3ccccc3)cc2)[nH]c2cc(F)ccc12)[C@@H](C)O [Entry 26] |
| < 100 |  | CN[C@@H](C)C(=O)N[C@H](C(=O)N1CCC[C@H]1Cc1c(-c2ccc(-c3[nH]c4cc(F)ccc4c3C[C@@H]3CCCN3C(=O)[C@@H](NC(=O)[C@H](C)NC)[C@@H](C)O)cc2)[nH]c2cc(F)ccc12)[C@@H](C)O [Entry 27] |
| < 100 |  | CN[C@@H](C)C(=O)N[C@H](C(=O)N1C[C@@H](O)C[C@H]1Cc1c(-c2ccc(-c3[nH]c4cc(F)ccc4c3C[C@@H]3C[C@H](O)CN3C(=O)[C@@H](NC(=O)[C@H](C)NC)[C@@H](C)O)cc2)[nH]c2cc(F)ccc12)[C@@H](C)O [Entry 28] |

| Structure (SMILES) | Kd [nM] | increase in binding affinity relative to the Smac tetrapeptide (AVPI) (XIAP BIR-3, FIG. 1) |
| --- | --- | --- |
| CC(N)C(=O)NC(C(=O)N1CCCC1Cc1c(-c2ccc(-c3oc4ccccc4c3CC3CCCN3C(=O)C(NC(=O)C(C)N)C(C)C)cc2)oc2ccccc12)C(C)C (single isomer, unassigned) [Entry 61] | > 10000 |  |
